Assay results from patent US20200352918A1, “COMPOUNDS AND METHODS FOR TREATING OR PREVENTING FIBROSIS” (priority 2019, published 2020).

System: bleomycin model of lung injury
Experiment: Bleomycin-induced pulmonary fibrosis in aged mice
Type: in vivo
Protocol: To define the anti-fibrotic effect of AA5, a bleomycin model of lung injury in aged mice was used as a model of lung fibrosis (FIG. 30A). 52-week-old mice were challenged with bleomycin (3 U/kg) by the oropharyngeal route to induce lung injury, followed by systemic administration of AA5 (20 mg/kg) or DMSO, from days 7-21 post bleomycin injury. Naïve mice were maintained as controls. The mice were sacrificed on day 21 and the total collagen content of the lungs was quantified using the hydroxyproline assay. […] The percentage of fibrotic areas from each section was quantified using hematoxylin and eosin staining, tiled and imaged on a Zeiss Axioscope microscope at 2.5× and quantified using the spline contour tool using the ZEN 2011 software.
Naive mice (n=4) without bleomycin were also monitored in the same manner throughout treatment period. […] Data represent min-max and median of collagen content relative to total protein content. ***P<0.001 **P<0.01 using one-way ANOVA and Sidak's multiple comparison test. FIGS. 30C and 30D show a representative H&E section of bleomycin treated lungs with the borders of the lung and fibrotic areas marked using the spline contour tool (FIG. 30C). […] Scale bar, 200 μm. […] Scale bars, 100 μm.

## Cc1c(C(=O)Nc2nc3ccccc3s2)sc2nc3cc4c(cc3cc12)OCO4 [AA5]
AA5 20 mg/kg systemic, days 7-21 post bleomycin, day 21, vs vehicle
  Total collagen of the lungs (hydroxyproline assay): significantly reduced total collagen
AA5 20 mg/kg vs vehicle, IF
  Type II marker pro-Surfactant Protein C (proSPC): qualitatively larger number
AA5 20 mg/kg, day 21
  Percentage of fibrotic areas (H&E): vehicle treated mice displayed significantly more fibrotic areas compared to the AA5 treated animals
